Here are results for 15 compounds from patent US20230086702A1, “SUBSTITUTED 2-AMINO-PYRAZOLYL-[1,2,4]TRIAZOLO[1,5A]PYRIDINE DERIVATIVES AND USE THEREOF” (The Johns Hopkins University, priority 2019, published 2023).

pIC50: −log10 of the molar value.

The target in one assay is T1, LZK (Homo sapiens, UniProt O43283).
T1 construct: 10 nM LZK, catalytic domain, Carna Biosiences in assay buffer; purchased Carna Biosciences ('Carna Biosiences' [sic])
T1 sequence (O43283 168-409 limits assumed): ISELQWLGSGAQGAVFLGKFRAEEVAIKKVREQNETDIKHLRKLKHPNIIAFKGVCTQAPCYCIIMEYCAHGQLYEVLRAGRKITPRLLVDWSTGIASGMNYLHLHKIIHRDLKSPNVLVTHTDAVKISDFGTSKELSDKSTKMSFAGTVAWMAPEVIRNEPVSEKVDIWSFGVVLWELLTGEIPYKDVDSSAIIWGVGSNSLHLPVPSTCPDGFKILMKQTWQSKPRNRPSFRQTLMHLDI
Put plainly: LZK biochemical assay (TR-FRET, MKK7 phosphorylation). As for the experimental part:
(§1) LZK assay is a biochemical assay format designed to screen for inhibitors of LZK. Enzymatic activity of LZK is measured by monitoring phosphorylation of the physiological substrate MKK7 (MAP2K7, Dual specificity mitogen-activated protein kinase kinase 7). Phosphorylation is detected by a TR-FRET system whereby His-tagged MKK7 is labeled by a XL665-labeled anti-His antibody (FRET acceptor, emission 665 nm). LZK phosphorylates MKK7 at T275/S277 which is detected by an Eu-labeled anti-phospho-MKK7 (T275/S277) antibody (FRET donor, excitation 340 nm). Phosphorylation of MKK7 results in an increased TR-FRET signal (Ratio XL665-channel/Eu-channel) and inhibition of enzymatic activity of LZK decreases the TR-FRET signal.
Assay Protocol for 384 low volume MTP format: 1 μl of test compound is pipetted into test plate; +5 μl LZK solution (10 nM LZK, catalytic domain, Carna Biosiences in assay buffer); +5 μl substrate solution (15 nM MKK7, LDB; 15 μM ATP, in assay buffer); 90 min incubation at RT; +5 μl detection mix (20 nM XL665-labeled anti-His antibody, Cisbio; 0.4 nM Eu-labeled anti-phospho-MKK7 (T275/S277), Cisbio/Millipore in detection buffer); 16 h incubation at 32° C.; endpoint measurement BMG (HTRF).
(§2) All indicated concentrations final concentrations.
(§3) Assay buffer (384 format): 50 mM Hepes pH 7.5, 10 mM MgCl2, 1 mM EGTA, 1 mM DTT, 0.01% Triton X-100, 0.01% BSA, 1:500 Smart Block.
(§4) Detection buffer: 25 mM Tris/HCl pH 7.5, 100 mM EDTA, 100 mM NaCl, 200 mM KF, 0.01% Tween 20, 1:500 Smart Block.
On the technique in general: In TR-FRET formats the signal depends on donor and acceptor labels being close together.

Another assay has as its target T2, DLK (Homo sapiens, UniProt Q12852).
T2 construct: 10 nM DLK, catalytic domain, Carna Biosiences; purchased Carna Biosciences ('Carna Biosiences' [sic])
T2 sequence (Q12852 125-366 limits assumed): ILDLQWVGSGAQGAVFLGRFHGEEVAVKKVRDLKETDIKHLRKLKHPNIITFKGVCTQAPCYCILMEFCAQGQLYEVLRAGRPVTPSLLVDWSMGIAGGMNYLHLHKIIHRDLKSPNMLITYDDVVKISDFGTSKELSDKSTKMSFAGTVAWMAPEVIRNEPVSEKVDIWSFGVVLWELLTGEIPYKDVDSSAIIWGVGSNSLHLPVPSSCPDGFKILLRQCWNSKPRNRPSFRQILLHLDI
Put plainly: DLK biochemical assay (TR-FRET, MKK7 phosphorylation). As for the experimental part:
as §1, with “DLK assay” for “LZK assay”, “of DLK.” for “of LZK.”, “of DLK” for “of LZK”, “nm). DLK” for “nm). LZK”, “at T275/S277,” for “at T275/S277”
Assay Protocol for 1536 MTP format: test compounds are predispensed (60 nl) in test plates; +3 μl DLK solution (10 nM DLK, catalytic domain, Carna Biosiences, 0.6 mM DTT in assay buffer); +2 μl substrate solution (15 nM MKK7, LDB; 60 μM ATP; 0.4 mM DTT in assay buffer); 90 min incubation at RT; +2 μl detection mix (5 nM XL665-labeled anti-His antibody, Cisbio; 0.1 nM Eu-labeled anti-phospho-MKK7 (T275/S277), Cisbio/Millipore in detection buffer); 16 h incubation at 37° C.; endpoint measurement BMG (HTRF).
Assay Protocol for 384 low volume MTP format: 1 μl of test compounds is pipetted into test plate; +5 μl DLK solution (10 nM DLK, catalytic domain, Carna Biosiences in assay buffer); +5 μl substrate solution (15 nM MKK7, LDB; 60 μM ATP, in assay buffer); 90 min incubation at RT; +9 μl detection mix (20 nM XL665-labeled anti-His antibody, Cisbio; 0.4 nM Eu-labeled anti-phospho-MKK7 (T275/S277), Cisbio/Millipore in detection buffer); 16 h incubation at 4° C.; endpoint measurement BMG (HTRF).
as §2, §3, §4

In general, pIC50 refers to the IC50 on a negative log10 scale, so that one unit is a factor of ten. Low readings indicate a high IC50, high ones a low IC50. For the compound `CC(C)C(c1ccc(C(F)(F)F)nc1)n1cc(-c2cc(-c3ccc(C4CC4)nc3)c3nc(N)nn3c2)cn1` (racemic) [II-43, 8-(6-Cyclopropylpyridin-3-yl)-6-(1-{2-methyl-1-[6-(trifluoromethyl)pyridin-3-yl]propyl}-1H-pyrazol-4-yl)[1,2,4]triazolo[1,5-a]pyridin-2-amine], the results for the pIC50 against LZK and at DLK were 7.59 and 8.38, respectively.
`CC(C)C(c1ccc(C(F)(F)F)nc1)n1cc(-c2cc(-c3ccc(OC4CC4)nc3)n3nc(N)nc3c2)cn1` (racemic) [II-48, 5-[6-(Cyclopropyloxy)pyridin-3-yl]-7-(1-{2-methyl-1-[6-(trifluoromethyl)pyridin-3-yl]propyl}-1H-pyrazol-4-yl)[1,2,4]triazolo[1,5-a]pyridin-2-amine]: the pIC50 against LZK is 7.96; against DLK it was 8.12.
With `CC(C)C(c1ccc(C(F)F)nc1)n1cc(-c2cc(-c3ccc(OC(F)F)nc3)n3nc(N)nc3c2)cn1` (racemic) [II-49, 5-[6-(Difluoromethoxy)pyridin-3-yl]-7-(1-{1-[6-(difluoromethyl)pyridin-3-yl]-2-methylpropyl}-1H-pyrazol-4-yl)[1,2,4]triazolo[1,5-a]pyridin-2-amine], the pIC50 against LZK is 7.08; against DLK, 7.51.
The corresponding values for `CC(C)C(c1ccc(C(F)F)nc1)n1cc(-c2cc(-c3ccc(C4CC4)nc3)n3nc(N)nc3c2)cn1` (racemic) [II-52, 5-(6-Cyclopropylpyridin-3-yl)-7-(1-{1-[6-(difluoromethyl)pyridin-3-yl]-2-methylpropyl}-1H-pyrazol-4-yl)[1,2,4]triazolo[1,5-a]pyridin-2-amine] are 7.72 and 8.22.
On to `CCC(c1ccc(C(F)(F)F)nc1)n1cc(-c2cc(-c3ccc(C4CC4)nc3)n3nc(N)nc3c2)cn1` (racemic) [II-55, 5-(6-Cyclopropylpyridin-3-yl)-7-(1-{1-[6-(trifluoromethyl)pyridin-3-yl]propyl}-1H-pyrazol-4-yl)[1,2,4]triazolo[1,5-a]pyridin-2-amine], for which the values for the pIC50 against LZK and against DLK were 7.62 and 7.68, respectively.
With `CC(C)C(c1ccc(C(F)(F)F)nc1)n1cc(-c2cc(-c3ccc(C4CC4)nc3)n3nc(N)nc3c2)cn1` (racemic) [II-58, 5-(6-Cyclopropylpyridin-3-yl)-7-(1-{2-methyl-1-[6-(trifluoromethyl)pyridin-3-yl]propyl}-1H-pyrazol-4-yl)[1,2,4]triazolo[1,5-a]pyridin-2-amine], the figures for the pIC50 on LZK and on DLK were 7.66 and 7.68, respectively.
On the same counts, the results for `CCC(c1ccc(C(F)F)nc1)n1cc(-c2cc(-c3ccc(C(F)(F)F)nc3)n3nc(N)nc3c2)cn1` (racemic) [II-61, 7-(1-{1-[6-(Difluoromethyl)pyridin-3-yl]propyl}-1H-pyrazol-4-yl)-5-[6-(trifluoromethyl)pyridin-3-yl][1,2,4]triazolo[1,5-a]pyridin-2-amine] are 7.21 and 7.19.
Turning to `CC(C)C(c1ccc(C(F)F)nc1)n1cc(-c2cc(-c3ccc(C(F)(F)F)nc3)n3nc(N)nc3c2)cn1` (racemic) [II-64, 7-(1-{1-[6-(Difluoromethyl)pyridin-3-yl]-2-methylpropyl}-1H-pyrazol-4-yl)-5-[6-(trifluoromethyl)pyridin-3-yl][1,2,4]triazolo[1,5-a]pyridin-2-amine], the results for the negative-log IC50 (pIC50) against LZK and at DLK were 7.23 and 7.40, respectively.
In the case of `CCC(c1ccc(C(F)F)nc1)n1cc(-c2cc(-c3ccc(C4CC4)nc3)n3nc(N)nc3c2)cn1` (racemic) [II-67, 5-(6-Cyclopropylpyridin-3-yl)-7-(1-{1-[6-(difluoromethyl)pyridin-3-yl]propyl}-1H-pyrazol-4-yl)[1,2,4]triazolo[1,5-a]pyridin-2-amine], the pIC50 against LZK was 7.82; on DLK, 7.92.
The corresponding values for `CC(C)C(c1ccc(C(F)(F)F)nc1)n1cc(-c2cc(-c3ccc(C(F)F)nc3)n3nc(N)nc3c2)cn1` (racemic) [II-70, 5-[6-(Difluoromethyl)pyridin-3-yl]-7-(1-{2-methyl-1-[6-(trifluoromethyl)pyridin-3-yl]propyl}-1H-pyrazol-4-yl)[1,2,4]triazolo[1,5-a]pyridin-2-amine] are 7.82 and 7.59.
`CC(C)C(c1ccc(C(F)(F)F)nc1)n1cc(-c2cc(-c3ccc(C4CC(F)(F)C4)nc3)n3nc(N)nc3c2)cn1` (racemic) [II-73, 5-[6-(3,3-Difluorocyclobutyl)pyridin-3-yl]-7-(1-{2-methyl-1-[6-(trifluoromethyl)pyridin-3-yl]propyl}-1H-pyrazol-4-yl)[1,2,4]triazolo[1,5-a]pyridin-2-amine]: the pIC50 at LZK and at DLK was 7.36 each time.
For `Nc1nc2cc(-c3cnn(C(c4ccc(C(F)F)nc4)C4CCOCC4)c3)cc(-c3ccc(C(F)(F)F)nc3)n2n1` (racemic) [II-76, 7-(1-{[6-(Difluoromethyl)pyridin-3-yl](tetrahydro-2H-pyran-4-yl)methyl}-1H-pyrazol-4-yl)-5-[6-(trifluoromethyl)pyridin-3-yl][1,2,4]triazolo[1,5-a]pyridin-2-amine], the pIC50 was 7.80 against LZK and 7.68 against DLK.
Turning to `CC(C)C(c1ccc(C(F)(F)F)nc1)n1cc(-c2cc(-c3ccc(N4CCCC4)nc3)n3nc(N)nc3c2)cn1` (racemic) [II-79, 7-(1-{2-Methyl-1-[6-(trifluoromethyl)pyridin-3-yl]propyl}-1H-pyrazol-4-yl)-5-[6-(pyrrolidin-1-yl)pyridin-3-yl][1,2,4]triazolo[1,5-a]pyridin-2-amine], the pIC50 against LZK was 7.57; against DLK, 7.34.
Turning to `CC(C)C(c1ccc(C(F)(F)F)nc1)n1cc(-c2cc(-c3ccc(C4(O)CCC4)nc3)n3nc(N)nc3c2)cn1` (racemic) [II-80, 1-{5-[2-Amino-7-(1-{2-methyl-1-[6-(trifluoromethyl)pyridin-3-yl]propyl}-1H-pyrazol-4-yl)[1,2,4]triazolo[1,5-a]pyridin-5-yl]pyridin-2-yl}cyclobutan-1-ol], the pIC50 against LZK was 7.77; against DLK it was 7.68.
With `CC(C)C(c1ccc(C(F)(F)F)nc1)n1cc(-c2cc(-c3cnc(OCC(F)(F)F)nc3)n3nc(N)nc3c2)cn1` (racemic) [II-85, 7-(1-{2-Methyl-1-[6-(trifluoromethyl)pyridin-3-yl]propyl}-1H-pyrazol-4-yl)-5-[2-(2,2,2-trifluoroethoxy)pyrimidin-5-yl][1,2,4]triazolo[1,5-a]pyridin-2-amine], the pIC50 was 6.49 on LZK and 6.64 against DLK.
